# Earlier results in patent publication US20030198685A1 (priority 2002, published 2003).
# Like-named read-outs stand apart in the source and are kept apart here.
# Key:
# [1] = patients on dialysis
# [2] = nandrolone use
# [3] = female rats, constant infusion
# [4] = not given; remark: listed apart in the source
# [5] = test system: androgen receptor; details: seminal vesicle; parent versus 5-alpha-reduced metabolite
# [6] = 300 mg/wk for six weeks
# [7] = Caucasian group of hypogonadal men
# [8] = test system: prostate and seminal vesicle weights; levator ani muscles
# [9] = pharmacological doses, HIV-infected men
# [10] = after supplementation
# [11] = not given; remark: listed apart in the source
smiles,measurement,setting,value
"C[C@]12CC[C@H]3[C@@H](CCC4=CC(=O)CC[C@@H]43)[C@@H]1CC[C@@H]2O [nandrolone, 19-nor-testosterone]",decrease in HDL-cholesterol,body builders,25-27%
same,lean body mass,body builders ingesting nandrolone,Superior increases
same,lean body mass compared with placebo,[1],increased significantly
same,effect on sperm,[2],azoospermia
same,energy expenditure,[3],increased
C[C@]12CCC(=O)C=C1CC[C@@H]1[C@@H]2CC[C@]2(C)C(=O)CC[C@@H]12 [4-androstenedione],serum testosterone,[4]; supplementation,elevations
C[C@]12CC[C@H]3[C@@H](CC=C4C[C@@H](O)CC[C@@]43C)[C@@H]1CC[C@@H]2O [5-androstenediol],proportion of protein in the body composition,[3],increased
C[C@]12CC[C@H]3[C@@H](CCC4=CC(=O)CC[C@@]43C)[C@@H]1CC[C@@H]2O [testosterone],change of affinity to the androgen receptor on 5-alpha-reduction,[5],increasing by seven- to eight-fold
same,proportion of protein in the body composition,[3],increased
"CCCCCCC(=O)O[C@H]1CC[C@H]2[C@@H]3CCC4=CC(=O)CC[C@]4(C)[C@H]3CC[C@]12C [TE, testosterone enanthate]",body circumferences with significant increases (of fifteen),[6],shoulders
same,"sexual interest and activity, spontaneous erection",[7],significant increases
"C[C@@H]1CC2=CC(=O)CC[C@@H]2[C@H]2CC[C@]3(C)[C@@H](O)CC[C@H]3[C@@H]21 [MENT, 7α-methyl-19-nor-testosterone]",androgenic potency relative to testosterone,[8]; measured by prostate and seminal vesicle weights,four- to five-times
same,anabolic potency relative to testosterone,[8]; measured in the levator ani muscles,ten-times
same,"sexual interest and activity, spontaneous erection",[7],significant increases
"CCCCCCCCCC(=O)O[C@H]1CC[C@H]2[C@@H]3CCC4=CC(=O)CC[C@@H]4[C@H]3CC[C@]12C [nandrolone decanoate, 19-nor-testosterone decanoate]","total weight, lean body mass, body cell mass, muscle size and strength",[9],significant gains
same,body circumferences with significant increases (of fifteen),[6],shoulders and chest
C[C@]12CC[C@H]3[C@@H](CCC4=C[C@@H](O)CC[C@@]43C)[C@@H]1CC[C@@H]2O [4-androstenediol],urine testosterone concentration relative to 4-androstenedione,[10],10 fold
same,human serum testosterone levels,[4]; human,elevations
"C[C@]12CC[C@H](O)CC1=CC[C@@H]1[C@@H]2CC[C@]2(C)C(=O)CC[C@@H]12 [DHEA, dehydro-epiandrosterone]",plasma testosterone,[11]; 50 mg dose of DHEA,levels similar to those observed in young women
same,increase of plasma delta 4-androstenedione,[11]; 50 mg or 200 mg DHEA,significant and dose dependent
same,"plasma estrogens, particularly estradiol",[11]; 50 mg or 200 mg DHEA,significant and dose dependent increase
same,plasma testosterone,[11]; 200 mg dose of DHEA,slightly below the levels observed in normal men
same,increase of plasma dihydrotestosterone levels,[11]; both doses of DHEA,small
